Experimental data published in US20230000849A1, “INHIBITION OF SMARCA2 FOR TREATMENT OF CANCER” (Epizyme, Inc., priority 2017, published 2023).
“Also recorded” adds a separate entry of the source.

Tests used:
SMACA2 = SMACA2 (Homo sapiens, UniProt P51531); assay: PFI-3 binding to SMARCA2 (FIG. 6A)
SMARCA2 = SMARCA2 (Homo sapiens, UniProt P51531); assay: SMARCA2 ATPase activity inhibition by known bromodomain inhibitors (HTS ADP-Glo bioluminescent format); type: biochemical; conditions: read-out: % inh SMARCA2 at 10 nM
Sequence of SMARCA2 (P51531 whole entry): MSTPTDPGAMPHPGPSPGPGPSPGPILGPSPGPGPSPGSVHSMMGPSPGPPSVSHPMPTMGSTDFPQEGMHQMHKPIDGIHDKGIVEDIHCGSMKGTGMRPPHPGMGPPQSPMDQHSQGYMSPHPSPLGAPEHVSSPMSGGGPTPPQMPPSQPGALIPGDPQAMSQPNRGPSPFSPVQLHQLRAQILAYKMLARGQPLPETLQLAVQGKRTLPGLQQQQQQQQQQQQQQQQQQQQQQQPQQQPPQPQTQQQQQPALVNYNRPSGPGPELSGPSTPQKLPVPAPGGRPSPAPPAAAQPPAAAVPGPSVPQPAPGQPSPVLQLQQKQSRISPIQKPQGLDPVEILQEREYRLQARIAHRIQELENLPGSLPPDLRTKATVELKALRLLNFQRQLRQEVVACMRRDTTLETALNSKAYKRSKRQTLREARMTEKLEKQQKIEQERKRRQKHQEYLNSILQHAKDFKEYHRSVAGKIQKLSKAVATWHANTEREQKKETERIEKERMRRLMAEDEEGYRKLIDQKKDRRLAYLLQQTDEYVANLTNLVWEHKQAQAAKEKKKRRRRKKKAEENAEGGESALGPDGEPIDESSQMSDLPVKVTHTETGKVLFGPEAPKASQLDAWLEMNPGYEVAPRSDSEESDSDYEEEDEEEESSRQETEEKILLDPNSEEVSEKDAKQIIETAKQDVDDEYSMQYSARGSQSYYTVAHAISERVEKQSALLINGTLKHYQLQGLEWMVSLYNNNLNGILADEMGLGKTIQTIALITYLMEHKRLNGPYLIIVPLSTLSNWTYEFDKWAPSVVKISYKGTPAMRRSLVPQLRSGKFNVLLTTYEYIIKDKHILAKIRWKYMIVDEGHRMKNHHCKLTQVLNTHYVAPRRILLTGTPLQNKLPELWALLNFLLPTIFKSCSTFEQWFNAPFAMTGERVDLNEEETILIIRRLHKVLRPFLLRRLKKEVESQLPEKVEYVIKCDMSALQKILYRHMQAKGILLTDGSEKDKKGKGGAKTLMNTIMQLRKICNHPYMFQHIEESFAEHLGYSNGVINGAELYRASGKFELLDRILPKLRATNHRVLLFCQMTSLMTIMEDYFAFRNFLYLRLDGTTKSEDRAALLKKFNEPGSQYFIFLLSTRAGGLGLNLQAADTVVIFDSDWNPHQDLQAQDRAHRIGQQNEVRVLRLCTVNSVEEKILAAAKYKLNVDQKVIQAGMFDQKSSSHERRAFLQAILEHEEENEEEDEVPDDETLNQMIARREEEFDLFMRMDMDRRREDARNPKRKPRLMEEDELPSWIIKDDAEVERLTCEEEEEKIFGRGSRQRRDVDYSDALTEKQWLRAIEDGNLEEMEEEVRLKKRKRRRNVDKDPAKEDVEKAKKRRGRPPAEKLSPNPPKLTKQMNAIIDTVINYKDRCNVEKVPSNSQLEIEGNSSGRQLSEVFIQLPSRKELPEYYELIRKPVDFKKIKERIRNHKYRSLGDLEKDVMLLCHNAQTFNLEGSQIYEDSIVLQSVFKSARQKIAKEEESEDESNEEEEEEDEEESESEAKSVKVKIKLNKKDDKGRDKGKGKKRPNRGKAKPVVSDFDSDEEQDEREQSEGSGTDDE
Procedure: As such, the development of viable antagonists or inhibitors (i.e., ATPase inhibitors) requires methods of monitoring ATPase activity.
The signal to background ratio, ATPase activity as a function of protein concentration, and the dependence of ATP activity on mononucleosome substrate were determined for the isolated full length SMARCA2 and SMARACA4 in a high throughput screening bioluminescent assay (HTS ADP-Glo™ format).

[1] = test system: SMARCA4 wild-type or mutant cell lines; assay: Cell growth in SMARCA4 wild-type or mutant cell lines (FIG. 6B); type: cell-based; conditions: SMARCA4-wt or mutant cell lines
Excerpt: FIGS. 6A and 6B are a series of graphs illustrating antiproliferative effects of bromodomain inhibitor PFI-3.

Sequence of SMACA2 (P51531 whole entry): as above

With `O=C(/C=C/N1C[C@H]2C[C@@H]1CN2c1ccccn1)c1ccccc1O` [PFI3] the “binding affinity to SMARCA2” value (SMACA2) was “nanomolar affinity”, the inhibition at 0.01 µM (SMARCA2) was 5% and the “effect on cell growth” value [1] was “no functional effect; also recorded: does not impact cell growth”.
